Test results taken from patent US20170015640A1, “USE OF ARYLALKANOLAMINES AS SIGMA-1 RECEPTOR ANTAGONISTS” (Università degli studi di Pavia, priority 2014, published 2017).

Experiments:
σ-1 receptors = target: T1, σ-1 receptors (Rattus norvegicus, UniProt Q9R0C9); assay: Growth of NGF-induced neurite outgrowths in PC12 cells (agonist/antagonist profile); format: cell-based; conditions: FIG. 6
T1 construct: performed on rat pheochromocytoma cells (PC12 cells); endogenous in cells; host or cells: PC12 rat pheochromocytoma cells
T1 sequence (Q9R0C9 whole entry): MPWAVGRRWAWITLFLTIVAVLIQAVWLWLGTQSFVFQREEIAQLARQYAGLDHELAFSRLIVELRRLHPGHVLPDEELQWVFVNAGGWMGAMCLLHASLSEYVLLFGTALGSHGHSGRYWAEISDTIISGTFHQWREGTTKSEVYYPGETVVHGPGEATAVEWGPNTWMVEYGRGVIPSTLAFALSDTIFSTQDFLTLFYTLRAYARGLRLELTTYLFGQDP
Protocol: Evaluation of the growth of neurite outgrowths induced by neuronal growth factor (NGF).
Evaluation of the growth of NGF-induced neurite outgrowths was performed on rat pheochromocytoma cells (PC12 cells), conventionally used as a model of neuronal study.
This method constitutes a reliable model for evaluating the agonist/antagonist profile of low molecular weight compounds on the o receptors. In particular, it has been reported that σ-1 agonists potentiate the growth of NGF-induced neurite outgrowths in PC12 cells. In contrast, σ-1 antagonists oppose the action of the agonists, leading to a reduction in NGF-induced growth (Rossi D. et al., “identification of a potent and selective σ1 receptor agonist potentiating NGF-induced neurite outgrowth in PC12 cells”, Bioorg. Med. Chem. 2011, 19, 6210-6224).
The cell culturing PC12 cells, the method for quantifying the growth of neurite outgrowths and the cytotoxicity test were performed as described by Rossi D. et al. in Bioorg. Med. Chem. 2011 cited above.
Statistical analysis of the data obtained was performed using the two-way analysis of variants (ANOVA) method and the Tukey post-hoc test. Values of p<0.05 were considered as being statistically significant.
The results, expressed as the mean value ±standard error of mean (SEM), represent the percentage of cells showing neurite growth. […]

[1] = In vitro metabolic stability in dog plasma; format: in vitro ADME; conditions: 37° C., FIG. 7(A)
Protocol: (§1) The metabolic stability studies were performed using biological matrices (plasma, blood and S9 fraction of liver) obtained from various animal species.
(§2) The biological matrices and the analysis method were arranged according to the process described by Rossi D. et al. in “Identification of RC-33 as a potent and selective al receptor agonist potentiating NGF-induced neurite outgrowth in PC12 cells. Part 2: g -scale synthesis, physicochemical characterization and in vitro metabolic stability” (Bioorg. Med. Chem. 2013, 21, 2577-2586).
(§3) For each biological matrix, suitable solutions were prepared to perform the test, as described below.
(§4) 10 μL of a stock solution of compound 1 in dimethyl sulfoxide (DMSO) were incubated with each matrix (total reaction volume 1 mL) in a mixer thermostatically maintained at 37° C. for […]. 50 μL aliquots were taken from each reaction mixture and sampled in duplicate at 5, 10, 15, 30, 60, 120 and 240 minutes to determine the reaction kinetics. […] The supernatant was analysed by means of an Acquity Waters ultra-fast liquid chromatography system, interfaced with a photodiode array detector (UPLC/UV/PAD) to obtain the concentration of the test compound at each of the said times. […]
(§5) The results, obtained from three independent experiments and expressed as the mean value ±standard deviation (SD), are given in FIGS. 8 and 9.

[2] = In vitro metabolic stability, overall conclusion over biological matrices; format: in vitro ADME, various animal species
Protocol: as §1, §2, §3, §4, §5

male ICR mice = assay: Formalin test (animal model of inflammatory pain); format: in vivo, mouse; conditions: intraperitoneal, even at a dose of 1 mg/kg, 30 min before 2% formalin, FIG. 9
Protocol: The formalin test is an animal model of inflammatory pain widely used and known in the literature.
32 male ICR mice weighing 25 grams were divided into 4 groups of 8 mice each.
The vehicle alone, which consisted of a mixture of dimethyl sulfoxide (DMSO), castor oil Cremophor® EL (BASF) and distilled water, in a 10/10/80 ratio, was administered to the control group (CTR).
Compound 1 was dissolved in the same vehicle and administered at the following doses: • group 1, 1 mg/kg; • group 2, 10 mg/kg; and • group 3, 20 mg/kg.
All the administrations took place by intraperitoneal injection. Thirty minutes after the administration, all the mice were subjected to an injection with 20 uL of a 2% formalin solution subcutaneously, into a paw.
The injection of formalin induces a two-phase nociceptive response, in other words, within the first 5-10 minutes of the administration of formalin, the first nociceptive phase is manifested, followed by a phase of quiescence and by the second nociceptive phase which is manifested 20-30 minutes after the administration of formalin.
The nociceptive response was recorded by evaluating the time that each mouse spent licking or biting its paw which received the injection. […]

[3] = In vitro metabolic stability in mouse blood; format: in vitro ADME; conditions: 37° C., FIG. 7(B)
Protocol: as §1, §2, §3, §4, §5

[4] = In vitro metabolic stability in human plasma; format: in vitro ADME; conditions: 37° C., FIG. 7(A)
Protocol: as §1, §2, §3, §4, §5

[5] = In vitro metabolic stability in rat blood; format: in vitro ADME; conditions: 37° C., FIG. 7(B)
Protocol: as §1, §2, §3, §4, §5

[6] = In vitro metabolic stability in S9 fraction of rat liver; format: in vitro ADME
Protocol: as §1, §2, §3, §4, §5

σ-1 receptor = σ-1 receptor (Cavia porcellus, UniProt Q60492); assay: biochemical
Chain of σ-1 receptor (Q60492 whole entry): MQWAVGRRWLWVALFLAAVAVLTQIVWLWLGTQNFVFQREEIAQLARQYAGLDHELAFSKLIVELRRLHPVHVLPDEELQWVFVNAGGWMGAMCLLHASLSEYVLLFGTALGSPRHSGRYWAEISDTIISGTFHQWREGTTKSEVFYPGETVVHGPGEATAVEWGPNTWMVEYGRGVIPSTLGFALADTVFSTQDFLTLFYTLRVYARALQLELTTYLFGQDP
Description: The IC50 values obtained from three independent experiments were transformed into the respective affinity constants (Ki), using the Cheng-Prusoff equation.

[7] = In vitro metabolic stability in S9 fraction of human liver; format: in vitro ADME
Protocol: as §1, §2, §3, §4, §5

[8] = In vitro metabolic stability in rat plasma; format: in vitro ADME; conditions: 37° C., FIG. 7(A)
Protocol: as §1, §2, §3, §4, §5

For `OCC(CCN1CCCCC1)c1ccc(-c2ccccc2)cc1` (centres unmarked) [Compound 1, 4-(N-piperidinyl)-2-(4-diphenyl)butanol], the “effect on agonist-potentiated growth of NGF-induced neurite outgrowths” value (σ-1 receptors; σ-1 agonist plus 2.5 μM of compound (group A)) was “appreciably opposed the effect of the agonist compound”, the “metabolization in dog plasma” value [1] was “insignificant” and the “in vitro metabolic stability” value [2] was “high”. The “reduction of inflammatory pain (time spent licking or biting the paw)” value (male ICR mice) was “effective in reducing inflammatory pain”, the “metabolization in mouse blood” value [3] was “insignificant” and the “metabolization in human plasma” value [4] was “insignificant”. The “metabolization in rat blood” value [5] was “insignificant”, the “metabolization in S9 fraction of rat liver” value ([6]; absence of NADPH, FIG. 8(A)) was “insignificant” and the “metabolization in S9 fraction of rat liver” value ([6]; presence of NADPH, FIG. 8(B)) was “substantial metabolization”. For the same compound, the Ki (σ-1 receptor) was 6.2 nM, the “metabolization in S9 fraction of human liver” value ([7]; absence of NADPH, FIG. 8(A)) was “insignificant” and the “metabolization in S9 fraction of human liver” value ([7]; presence of NADPH, FIG. 8(B)) was “substantial metabolization”. For the same compound, the “metabolization in rat plasma” value [8] was “insignificant”.
In the case of `Cl.O=C(OCCN1CCOCC1)C1(c2ccccc2)CCCCC1` [PRE, 2-(4-morpholinoethyl)-1-phenylcyclohexanecarboxylate hydrochloride, reference compound], the “percentage of cells with growth of neurite outgrowths” value (σ-1 receptors; reference group (PRE) relative to control group (NGF)) is reported as “increased significantly”.
